Test results taken from publication PMC4717123, “The cytochrome P450 CYP6P4 is responsible for the high pyrethroid resistance in knockdown resistance-free Anopheles arabiensis” (Insect Biochemistry and Molecular Biology, 2016).
Where two headings read alike, the source gives them in different places.

T1: CYP6P4 (Anopheles arabiensis, UniProt A0A0M4KNY0)
T1 sequence (A0A0M4KNY0 1-506): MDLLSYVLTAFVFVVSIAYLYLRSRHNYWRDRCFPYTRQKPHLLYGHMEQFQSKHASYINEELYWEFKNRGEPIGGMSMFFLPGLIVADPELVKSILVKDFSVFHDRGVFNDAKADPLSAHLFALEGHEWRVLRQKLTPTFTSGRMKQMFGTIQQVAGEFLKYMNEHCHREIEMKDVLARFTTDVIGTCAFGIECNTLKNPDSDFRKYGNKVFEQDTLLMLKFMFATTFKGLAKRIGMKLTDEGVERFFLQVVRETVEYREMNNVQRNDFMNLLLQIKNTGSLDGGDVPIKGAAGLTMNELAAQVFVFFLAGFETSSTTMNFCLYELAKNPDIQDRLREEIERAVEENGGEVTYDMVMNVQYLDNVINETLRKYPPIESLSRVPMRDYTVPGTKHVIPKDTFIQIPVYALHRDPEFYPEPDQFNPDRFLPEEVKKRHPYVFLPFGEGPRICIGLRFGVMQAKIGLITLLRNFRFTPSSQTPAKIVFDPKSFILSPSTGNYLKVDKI
T1 sequence (Q86QH5 1-679 partner): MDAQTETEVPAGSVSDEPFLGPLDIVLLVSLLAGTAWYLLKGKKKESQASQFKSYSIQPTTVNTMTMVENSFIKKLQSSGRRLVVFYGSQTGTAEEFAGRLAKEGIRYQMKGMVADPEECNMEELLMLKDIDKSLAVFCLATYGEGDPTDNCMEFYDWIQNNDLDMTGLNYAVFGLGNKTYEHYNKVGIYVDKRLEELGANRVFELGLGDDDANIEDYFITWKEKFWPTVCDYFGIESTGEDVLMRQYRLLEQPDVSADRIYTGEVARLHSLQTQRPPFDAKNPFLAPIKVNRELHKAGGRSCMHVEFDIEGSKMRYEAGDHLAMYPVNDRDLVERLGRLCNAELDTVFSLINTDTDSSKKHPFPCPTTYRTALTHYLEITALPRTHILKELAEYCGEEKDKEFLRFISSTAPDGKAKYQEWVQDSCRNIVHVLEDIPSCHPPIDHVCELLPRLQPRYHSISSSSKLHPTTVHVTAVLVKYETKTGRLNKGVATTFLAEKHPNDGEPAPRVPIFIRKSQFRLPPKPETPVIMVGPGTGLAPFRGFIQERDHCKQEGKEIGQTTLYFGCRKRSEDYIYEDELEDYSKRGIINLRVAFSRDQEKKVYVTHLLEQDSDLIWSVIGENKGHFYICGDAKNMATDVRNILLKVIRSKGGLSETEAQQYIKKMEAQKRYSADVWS


Tests used:
[1] = target: T1, CYP6P4; test: In vitro metabolism assays with insecticides (percentage depletion, HPLC); format: in vitro ADME; conditions: for metabolised at 1 h, 20 µM: Anopheles arabiensis, recombinant cyp6p4
Method: 0.2 M Tris–HCl and NADPH-regeneration components were added to the bottom of 1.5 ml tube chilled on ice. Membranes expressing recombinant CYP6P4 and AgCPR (and reconstituted with cytochrome b5) were added to the side of the tube and pre-incubated for 5 min at 30 °C, with shaking at 1200 rpm. […] Reactions were quenched with 0.1 ml ice-cold methanol and incubated for 5 more minutes to precipitate protein. Tubes were then centrifuged at 16,000 rpm and 4 °C for 15 min, and 150 μl of supernatant transferred into HPLC vials for analysis. All reactions were carried out in triplicate with experimental samples (+NADPH) and negative controls (-NADPH). […] For the other insecticides, mobile phases were 65:35 (bendiocarb) and 60:40 v/v (propoxur and malathion) acetonitrile to water, respectively with column temperature of 40 °C for bendiocarb and propoxur. Bendiocarb and propoxur were detected at 205 nm and 270 nm respectively, whilst malathion was detected at 230 nm. Enzyme activity was calculated as percentage depletion (the difference in the amount of insecticide(s) remaining in the +NADPH tubes compared with the –NADPH) and a t-test used for statistical analysis.

[2] = system: An. arabiensis populations from Ndjamena; set-up: method as in Witzig et al., 2013; conditions: Chad, 2009, ref Witzig et al., 2013; cited from earlier work
[3] = target: T1, CYP6P4; test: Fluorogenic probes assay (O-dealkylation, DEF kinetics); format: biochemical; conditions: 0-2 μM diethoxyfluorescein, 2 pmol enzyme, 10 min
Method: To find out whether there are differences in the degree of binding of recombinant CYP6P4 to different insecticides, membrane was also tested for O-dealkylation towards seven (7) fluorogenic probes: resorufin-based 7-ethoxyresurofin (7-ER), resurofin methyl ether (RME), resorufin-benzylether (RBE) and resorufin-pentylether (RPE); coumarin-based probes: 7-ethoxy-4-trifluoromethylcoumarin (7-EFC) and 7-methoxy-4-trifluoromethylcoumarin (MFC); and diethoxyfluorescein (DEF). […] Membranes were activated for 5 min at 37 °C in fluorescence spectrophotometer FLOUstar Omega (BMG LABTECH, Ortenberg, Germany) before 25 μl NADPH regeneration buffer (1 mM glucose-6-phosphate (G6P), 0.25 mM MgCl2, 0.1 mM NADP and 1 U/ml glucose-6-phosphate dehydrogenase (G6PDH) prepared in KPi (pH 7.4) was added. All reactions were conducted in three replicates with negative control (–NADPH) devoid of the regeneration buffer. Rate of fluorescent product formation for 7-ER, RBE and RME (ʎexc = 544 nm, ʎemi = 590 nm), 7-EFC and MFC (ʎexc = 410 nm, ʎemi = 535 nm) and DEF (ʎexc = 485 nm, ʎemi = 530 nm) was determined by linear regression of measurement between 2 and 10 min after start of the reaction.
For kinetics, 0–2 μM diethoxyfluorescein was assayed with 2 pmol of recombinant enzyme in a total volume of 250 μl. The protocol was as outlined above, with varying substrate concentration. […]

[4] = target: T1, CYP6P4; test: Inhibition assay of CYP6P4 metabolism of diethoxyfluorescein by insecticides; format: biochemical; conditions: 0.11 μM DEF substrate, 2 pmol CYP6P4, inhibitor 25-0.011 μM, 30 °C
Method: To assess differences in the degree of binding of the recombinant CYP6P4 to insecticides from different classes, inhibition assay was conducted with DEF and nine insecticides (inhibitors). […] 25 μl of pre-warmed regeneration buffer (7.8 mg glucose-6-phosphate, 0.25 mM MgCl2, 1.7 mg NADP, 6 U/ml glucose-6-phosphate dehydrogenase and 2% w/v NaHCO3) was incorporated into the wells. Fluorescence was monitored for 21 cycles at interval of 1 min with shaking at every step, at 30 °C. Results were analysed with GraphPad Prism software and inhibition at each inhibitor concentration and incubation time calculated as residual control activity towards DEF.

[5] = substrate: CC1(C)C(C=C(Cl)Cl)C1C(=O)OCc1cccc(Oc2ccccc2)c1; test: purified protein, by the assay type; format: biochemical, Anopheles arabiensis; conditions: other: permethrin 3-30 μM, 30 min, 22.5 pmol recombinant protein
Method: Reactions were performed in triplicates both for + NADPH (experimental tubes) and –NADPH (negative control tubes). Km and Vmax were established from the plot of substrate concentrations against the initial velocities and fitting of the data to the Michaelis–Menten module using the least squares non-linear regression, as implemented in the GraphPad Prism 6.03 Software (GraphPad Inc., La Jolla, CA, USA).

[6] = 20 μM insecticide, 1 h incubation, 30 °C, +NADPH vs -NADPH

Molecule | Percentage depletion [1, 6] | metabolised at 1 h, 20 µM [1, 6] [%] | resistance/susceptibility status [2] | other results
Cc1c(COC(=O)[C@@H]2[C@H](/C=C(\Cl)C(F)(F)F)C2(C)C)cccc1-c1ccccc1 (racemic) [bifenthrin] | 49.2% |  |  | 
CC1(C)[C@H](C(=O)O[C@H](C#N)c2cccc(Oc3ccccc3)c2)[C@@H]1/C=C(\Cl)C(F)(F)F (racemic) [λ-cyhalothrin] |  | 57.8 |  | 
Clc1ccc(C(c2ccc(Cl)cc2)C(Cl)(Cl)Cl)cc1 [DDT] |  |  | resistant | Percentage depletion ([1]; 20 μM DDT, 1 h, following addition of sodium cholate, p = 0.08, neither dicofol nor DDE detected): up to 20%
CCOc1ccc2c(c1)Oc1cc(OCC)ccc1C21OC(=O)c2ccccc21 [DEF, diethoxyfluorescein] |  |  |  | Kcat (maximal catalytic activity) [3]: 0.9775 s⁻¹; Km [3]: 0.11 µM
CNC(=O)Oc1cccc2c1OC(C)(C)O2 [bendiocarb] | No activities |  | susceptible | IC50 [4]: high IC50 values
CC1(C)[C@H](C(=O)O[C@H](C#N)c2cccc(Oc3ccccc3)c2)[C@@H]1C=C(Br)Br [deltamethrin] |  | < 2 |  | IC50 ([4]; read-out: IC50): 2520 nM; mortality rate [2]: 90%
ClC1=C(Cl)[C@]2(Cl)[C@@H]3[C@@H]4C[C@@H]([C@H]5O[C@@H]45)[C@@H]3[C@@]1(Cl)C2(Cl)Cl [dieldrin] |  |  | susceptible | 
CCOc1ccc(C(C)(C)COCc2cccc(Oc3ccccc3)c2)cc1 [etofenprox] |  | 24.9 |  | 
CCOC(=O)CC(SP(=S)(OC)OC)C(=O)OCC (centres unmarked) [malathion] | No activities |  | susceptible | IC50 [4]: high IC50 values
CC1(C)C(C=C(Cl)Cl)C1C(=O)OCc1cccc(Oc2ccccc2)c1 (centres unmarked) [permethrin] |  | 70.5 |  | IC50 ([4]; read-out: IC50): 970 nM
CNC(=O)Oc1ccccc1OC(C)C [propoxur] | No activities |  |  | 
recombinant CYP6P4 (Anopheles arabiensis) (protein) MDLLSYVLTAFVFVVSIAYLYLRSRHNYWRDRCFPYTRQKPHLLYGHMEQFQSKHASYINEELYWEFKNRGEPIGGMSMFFLPGLIVADPELVKSILVKDFSVFHDRGVFNDAKADPLSAHLFALEGHEWRVLRQKLTPTFTSGRMKQMFGTIQQVAGEFLKYMNEHCHREIEMKDVLARFTTDVIGTCAFGIECNTLKNPDSDFRKYGNKVFEQDTLLMLKFMFATTFKGLAKRIGMKLTDEGVERFFLQVVRETVEYREMNNVQRNDFMNLLLQIKNTGSLDGGDVPIKGAAGLTMNELAAQVFVFFLAGFETSSTTMNFCLYELAKNPDIQDRLREEIERAVEENGGEVTYDMVMNVQYLDNVINETLRKYPPIESLSRVPMRDYTVPGTKHVIPKDTFIQIPVYALHRDPEFYPEPDQFNPDRFLPEEVKKRHPYVFLPFGEGPRICIGLRFGVMQAKIGLITLLRNFRFTPSSQTPAKIVFDPKSFILSPSTGNYLKVDKI |  |  |  | Km [5]: 8.07 µM; kcat [5]: 0.054 s⁻¹; kcat/Km [5]: 0.4008 min^−1μM^−1
